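In this assay, cells in 96-well plates receive the compound at five concentrations for 48 hours. Endpoints are linearly interpolated between the surrounding concentrations. GI50 is the concentration that inhibits growth by half. TGI is the concentration that stops growth completely.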
Tests used:
Assay in all cases: growth of human tumour cells (NCI), 48 h
OVCAR-8 ovarian = test system: OVCAR-8 ovarian
NCI-H23 lung = test system: NCI-H23 lung
BT-549 breast = test system: BT-549 breast
OVCAR-5 ovarian = test system: OVCAR-5 ovarian
SW-620 colon = test system: SW-620 colon
786-0 renal = test system: 786-0 renal
RXF 393 renal = test system: RXF 393 renal
LOX IMVI melanoma = test system: LOX IMVI melanoma
HL-60(TB) leukemia = test system: HL-60(TB) leukemia
CCRF-CEM leukemia = test system: CCRF-CEM leukemia
MCF7 breast = test system: MCF7 breast
SK-MEL-5 melanoma = test system: SK-MEL-5 melanoma
HOP-62 NSCLC = test system: HOP-62 NSCLC
IGROV1 ovarian = test system: IGROV1 ovarian
TK-10 renal = test system: TK-10 renal
SF-268 CNS = test system: SF-268 CNS
U251 CNS = test system: U251 CNS
MOLT-4 leukemia = test system: MOLT-4 leukemia
SR leukemia = test system: SR leukemia
RPMI-8226 leukemia = test system: RPMI-8226 leukemia
PC-3 prostate = test system: PC-3 prostate
MALME-3M melanoma = test system: MALME-3M melanoma
OVCAR-3 ovarian = test system: OVCAR-3 ovarian
A549 NSCLC = test system: A549 NSCLC
K-562 leukemia = test system: K-562 leukemia
COLO 205 colon = test system: COLO 205 colon
SK-MEL-28 melanoma = test system: SK-MEL-28 melanoma
HCT-15 colon = test system: HCT-15 colon
HT29 colon = test system: HT29 colon
NCI-H522 lung = test system: NCI-H522 lung
NCI-H226 lung = test system: NCI-H226 lung
OVCAR-4 ovarian = test system: OVCAR-4 ovarian
SNB-19 CNS = test system: SNB-19 CNS
UO-31 renal = test system: UO-31 renal
SNB-75 CNS = test system: SNB-75 CNS
NCI-H460 lung = test system: NCI-H460 lung
UACC-257 melanoma = test system: UACC-257 melanoma
T-47D breast = test system: T-47D breast
MDA-MB-231 breast = test system: MDA-MB-231 breast
DU-145 prostate = test system: DU-145 prostate
SN12C renal = test system: SN12C renal
SF-539 CNS = test system: SF-539 CNS
MDA-MB-435 = test system: MDA-MB-435
UACC-62 melanoma = test system: UACC-62 melanoma
SF-295 CNS = test system: SF-295 CNS
KM12 colon = test system: KM12 colon
ACHN renal = test system: ACHN renal
NCI/ADR-RES ovarian = test system: NCI/ADR-RES ovarian
HCC-2998 colon = test system: HCC-2998 colon
HCT-116 colon = test system: HCT-116 colon
SK-OV-3 ovarian = test system: SK-OV-3 ovarian
CAKI-1 renal = test system: CAKI-1 renal
M14 melanoma = test system: M14 melanoma
HOP-92 NSCLC = test system: HOP-92 NSCLC
EKVX NSCLC = test system: EKVX NSCLC

S=C1SC2=Nc3ccccc3CN2C2=NCCN12
GI50 (OVCAR-8 ovarian): > 100 µM
TGI (OVCAR-8 ovarian): > 100 µM
GI50 (NCI-H23 lung): > 100 µM
TGI (NCI-H23 lung): > 100 µM
GI50 (BT-549 breast): 99.9 µM
TGI (BT-549 breast): > 100 µM
GI50 (OVCAR-5 ovarian): > 100 µM
TGI (OVCAR-5 ovarian): > 100 µM
GI50 (SW-620 colon): 39.8 µM
TGI (SW-620 colon): > 100 µM
GI50 (786-0 renal): > 100 µM
TGI (786-0 renal): > 100 µM
GI50 (RXF 393 renal): 23.3 µM
TGI (RXF 393 renal): 80.4 µM
GI50 (LOX IMVI melanoma): 25.9 µM
TGI (LOX IMVI melanoma): 83.2 µM
GI50 (HL-60(TB) leukemia): 89.2 µM
TGI (HL-60(TB) leukemia): > 100 µM
GI50 (CCRF-CEM leukemia): 36.7 µM
TGI (CCRF-CEM leukemia): > 100 µM
GI50 (MCF7 breast): 51.5 µM
TGI (MCF7 breast): > 100 µM
GI50 (SK-MEL-5 melanoma): 14.8 µM
TGI (SK-MEL-5 melanoma): 55.5 µM
GI50 (HOP-62 NSCLC): > 100 µM
TGI (HOP-62 NSCLC): > 100 µM
GI50 (IGROV1 ovarian): 7.88 µM
TGI (IGROV1 ovarian): > 100 µM
GI50 (TK-10 renal): > 100 µM
TGI (TK-10 renal): > 100 µM
GI50 (SF-268 CNS): > 100 µM
TGI (SF-268 CNS): > 100 µM
GI50 (U251 CNS): 39.2 µM
TGI (U251 CNS): > 100 µM
GI50 (MOLT-4 leukemia): 39.9 µM
TGI (MOLT-4 leukemia): > 100 µM
GI50 (SR leukemia): 18.7 µM
TGI (SR leukemia): 55.7 µM
GI50 (RPMI-8226 leukemia): > 100 µM
TGI (RPMI-8226 leukemia): > 100 µM
GI50 (PC-3 prostate): > 100 µM
TGI (PC-3 prostate): > 100 µM
GI50 (MALME-3M melanoma): 49.6 µM
TGI (MALME-3M melanoma): > 100 µM
GI50 (OVCAR-3 ovarian): 80.8 µM
TGI (OVCAR-3 ovarian): > 100 µM
GI50 (A549 NSCLC): > 100 µM
TGI (A549 NSCLC): > 100 µM
GI50 (K-562 leukemia): 32.8 µM
TGI (K-562 leukemia): > 100 µM
GI50 (COLO 205 colon): 54.4 µM
TGI (COLO 205 colon): > 100 µM
GI50 (SK-MEL-28 melanoma): > 100 µM
TGI (SK-MEL-28 melanoma): > 100 µM
GI50 (HCT-15 colon): 33 µM
TGI (HCT-15 colon): > 100 µM
GI50 (HT29 colon): 34.7 µM
TGI (HT29 colon): > 100 µM
GI50 (NCI-H522 lung): 27.7 µM
TGI (NCI-H522 lung): > 100 µM
GI50 (NCI-H226 lung): > 100 µM
TGI (NCI-H226 lung): > 100 µM
GI50 (OVCAR-4 ovarian): > 100 µM
TGI (OVCAR-4 ovarian): > 100 µM
GI50 (SNB-19 CNS): > 100 µM
TGI (SNB-19 CNS): > 100 µM
GI50 (UO-31 renal): > 100 µM
TGI (UO-31 renal): > 100 µM
GI50 (SNB-75 CNS): 17.4 µM
TGI (SNB-75 CNS): > 100 µM
GI50 (NCI-H460 lung): > 100 µM
TGI (NCI-H460 lung): > 100 µM
GI50 (UACC-257 melanoma): > 100 µM
TGI (UACC-257 melanoma): > 100 µM
GI50 (T-47D breast): 78.5 µM
TGI (T-47D breast): > 100 µM
GI50 (MDA-MB-231 breast): > 100 µM
TGI (MDA-MB-231 breast): > 100 µM
GI50 (DU-145 prostate): > 100 µM
TGI (DU-145 prostate): > 100 µM
GI50 (SN12C renal): > 100 µM
TGI (SN12C renal): > 100 µM
GI50 (SF-539 CNS): > 100 µM
TGI (SF-539 CNS): > 100 µM
GI50 (MDA-MB-435): > 100 µM
TGI (MDA-MB-435): > 100 µM
GI50 (UACC-62 melanoma): 72.5 µM
TGI (UACC-62 melanoma): > 100 µM
GI50 (SF-295 CNS): 83.5 µM
TGI (SF-295 CNS): > 100 µM
GI50 (KM12 colon): > 100 µM
TGI (KM12 colon): > 100 µM
GI50 (ACHN renal): > 100 µM
TGI (ACHN renal): > 100 µM
GI50 (NCI/ADR-RES ovarian): > 100 µM
TGI (NCI/ADR-RES ovarian): > 100 µM
GI50 (HCC-2998 colon): > 100 µM
TGI (HCC-2998 colon): > 100 µM
GI50 (HCT-116 colon): 52.8 µM
TGI (HCT-116 colon): > 100 µM
GI50 (SK-OV-3 ovarian): > 100 µM
TGI (SK-OV-3 ovarian): > 100 µM
GI50 (CAKI-1 renal): > 100 µM
TGI (CAKI-1 renal): > 100 µM
GI50 (M14 melanoma): > 100 µM
TGI (M14 melanoma): > 100 µM
GI50 (HOP-92 NSCLC): > 100 µM
TGI (HOP-92 NSCLC): > 100 µM
GI50 (EKVX NSCLC): > 100 µM
TGI (EKVX NSCLC): > 100 µM

From PubChem BioAssay (NCI)
